The values below come from patent US11470848B2, “Consortium of (carbamate) thiodicarb-resistant and (pyrethroid) biphenthrin-resistant bacteria and use thereof in liquid fertilizers” (priority 2018, dated 2022).

Usually mortality stands for the share of the test organisms that died.

Type in all cases: cell-based
For series [1], the system named is Azotobacter vinelandii. The method, then:
(§1) Bacteria strains, nitrifiers, phosphorus solubilizers and antagonists for pathogens: • a) Azotobacter vinelandii • b) Bacillus megaterium • c) Bacillus subtillis • d) Bacillus thuringiensis • e) Clostridium pasteuranium • f) Rhizobium Preparation for Stage Development • 1. Glass material is sterilized in an autoclave. • 2. The required amount of growth media is prepared, DFA Agar, Malt Agar (Corn Agar) and (PDA) to obtain viable colonies. • 3. Lethal dose (LD) applied to a hectare is established, for thiodicarb as well as bifenthrin. 10 Petri dishes are prepared with 0.1 LD of thiodicarb of bifenthrin. Dishes are incubated at 25° C. for 72 hours with cold light.
(§2) Methodology • a. Petri dishes are placed inside the laminar flow chamber along with the diluted samples, to seed microorganisms in the dishes, a one ml sample of the strain is taken with an automated pipette, 10^−1 and 10^−2 solutions are performed and each solution is homogenized. • b. […] Inoculated dishes are incubated for 72 hours and the bacteria growth will be recorded, the product concentration impact is determined over the plate growth (12 hours of incubation). • e. […] The colony diameter is determined using a graduated ruler, data is recorded subtracting the diameter of the seeded dish, from which the effect over the mycelial growth will be determined compared to the control (not poisoned MA, denominated as percentage of inhibition of radial growth (PIRG %). • h. Progress is recorded daily and after 7 days analysis of an acceptable coverage is performed, if not, the procedure is repeated as many times as required. • i. From the 10 Petri dishes for each microorganism, the one with the lowest mortality is the one that will continue with the following study. • j. […]
(§3) Characteristics for this procedure were recorded during all stages through the following indicators: • a. […] Percentage of inhibition measured in Number of CFU/mm • c. […]

Series [2] deals with Bacillus megaterium. The series is described as follows: Stagewise adaptation on growth media with thiodicarb / bifenthrin, mortality. As to conditions: for Resistant to: (FINAL): after the selective process, 40 stages. The method, then:
as §1
Methodology • a. Petri dishes are placed inside the laminar flow chamber along with the diluted samples, to seed microorganisms in the dishes, a one ml sample of the strain is taken with an automated pipette, 10^−1 and 10^−2 solutions are performed and each solution is homogenized. • b. Having the petri dishes with the sterile and cold growth media, it is homogenized with 6 right to left movements, 6 clockwise movements, 6 counterclockwise movements and 6 front to back movements over a flat horizontal surface until the inoculum is completely integrated into the media, stand until it solidifies and each dish is covered with parafilm to avoid contamination during incubation. • c. Dishes with thiodicarb and Bifenthrin are placed inside the incubator at 25° C. for 72 hours with a cold light lamp. • d. Inoculated dishes are incubated for 72 hours and the bacteria growth will be recorded, the product concentration impact is determined over the plate growth (12 hours of incubation). • e. The residual impact of the product is reviewed after 7 days in the malt agar and PDA agar medias. • f. […] The colony diameter is determined using a graduated ruler, data is recorded subtracting the diameter of the seeded dish, from which the effect over the mycelial growth will be determined compared to the control (not poisoned MA, denominated as percentage of inhibition of radial growth (PIRG %). • h. Progress is recorded daily and after 7 days analysis of an acceptable coverage is performed, if not, the procedure is repeated as many times as required. • i. From the 10 Petri dishes for each microorganism, the one with the lowest mortality is the one that will continue with the following study. • j. […]
as §3
(§4) For each species, stages analyzing times required to cover the entire field were performed. Once this time was determined, they were left to rest for 10 days to be later subject to the following protocol: […]

In series [3] the test system is Bacillus subtillis. Described as above. The conditions noted are these: for Resistant to: (FINAL): after the adaptation process, 40 stages. The method, then:
as §1
(§5) Methodology • a. Petri dishes are placed inside the laminar flow chamber along with the diluted samples, to seed microorganisms in the dishes, a one ml sample of the strain is taken with an automated pipette, 10^−1 and 10^−2 solutions are performed and each solution is homogenized. • b. Having the petri dishes with the sterile and cold growth media, it is homogenized with 6 right to left movements, 6 clockwise movements, 6 counterclockwise movements and 6 front to back movements over a flat horizontal surface until the inoculum is completely integrated into the media, stand until it solidifies and each dish is covered with parafilm to avoid contamination during incubation. • c. Dishes with thiodicarb and Bifenthrin are placed inside the incubator at 25° C. for 72 hours with a cold light lamp. • d. Inoculated dishes are incubated for 72 hours and the bacteria growth will be recorded, the product concentration impact is determined over the plate growth (12 hours of incubation). • e. The residual impact of the product is reviewed after 7 days in the malt agar and PDA agar medias. • f. If there is no growth over 10%, the process is repeated until a mortality under 90% is obtained. • g. The colony diameter is determined using a graduated ruler, data is recorded subtracting the diameter of the seeded dish, from which the effect over the mycelial growth will be determined compared to the control (not poisoned MA, denominated as percentage of inhibition of radial growth (PIRG %). • h. Progress is recorded daily and after 7 days analysis of an acceptable coverage is performed, if not, the procedure is repeated as many times as required. • i. From the 10 Petri dishes for each microorganism, the one with the lowest mortality is the one that will continue with the following study. • j. The study is performed again using this percentage until coverage increases and so on, the addition of thiodicarb and bifenthrin is alternated with the LD in intervals of 0.1 LD; all these experiments have been designed with the experimental strains and a control. • k. With the data obtained from the bacterial growth, the percentage of inhibition of gradual growth is obtained, the data is transformed for its analysis with the expression 2 arc sin. A two-way classification analysis of variance is applied and later the Turkey test is performed using a 5% probability.
(§6) Characteristics for this procedure were recorded during all stages through the following indicators: • a. Growth speed • b. Percentage of inhibition measured in Number of CFU/mm • c. Percentage of poison resistance
as §4

Series [4] has as its system Bacillus thuringiensis. The series is described as above. As to conditions: for Resistant to: (FINAL): after the adaptation process, 48 stages. The method, then:
as §1, §5, §6, §4

Series [5] has as its system Clostridium pasteuranium. The series is described as above. As to conditions: for Resistant to: (FINAL): after the selective process, 40 stages. The method, then: as §1, §5, §6, §4
Series [6] deals with Rhizobium sp. The description is as above. The conditions noted are these: for Resistant to: (FINAL): after the adaptation process, 40 stages. The method, then: as §1, §2, §3
Where [7] appears, read: thiodicarb 0.9 LD (0.00016 gr), stages E-33 and E-34.
Setting [8] is: thiodicarb 0.2 LD (0.000035 gr), stages E-3 and E-4.
Setting [9] is: thiodicarb 0.1 LD (0.0000175 gr), stage E-2.
Where [10] appears, read: bifenthrin 0.9 LD (0.00000042 gr), stages E-37 and E-38.

The structures appear in SMILES notation. Where two headings read alike, the source gives them in different places.

With `CS/C(C)=N\OC(=O)N(C)SN(C)C(=O)O/N=C(\C)SC` [thiodicarb], the mortality amounted to 10% in series [1] (setting [7]); 65% in series [2] (setting [8]); 82% in series [3] (thiodicarb 0.1 LD (0.0000175 gr), stage E-1, until day 68 of incubation); 80% in series [3] (setting [9]); 30% in series [4] (setting [7]); 25% in series [4] (thiodicarb 1 LD (0.00018 gr), stages E-35 and E-36). Further, the mortality was 14% in series [4] (thiodicarb 1.2 LD (0.00022 gr), stages E-43 and E-44); 87% in series [5] (thiodicarb 0.1 LD (0.0000175 gr), stage E-1, until incubation day 72); 84% in series [5] (setting [9]); 60% in series [6] (setting [8]). The “Resistant to: (FINAL)” value was 1 LD of thiodicarb in series [2]; 1 LD of thiodicarb in series [3]; 1.2 LD of thiodicarb in series [4]; 1 DL of thiodicarb in series [5]; 1 DL of thiodicarb in series [6].

For the molecule `Cc1c(COC(=O)[C@@H]2[C@H](/C=C(\Cl)C(F)(F)F)C2(C)C)cccc1-c1ccccc1` (racemic) [bifenthrin, 2-methyl biphenyl-3-ilmetil(2)-(1RS,3RS)-3-(2-chlorine 3,3,3-trifluoropropene)-2,2-dimethyl-cyclo-propane-carboxylate], the mortality came to 60% in series [1] (bifenthrin 0.2 LD (0.00000012 gr), stages E-7 and E-8); 10% in series [1] (setting [10]); 63% in series [2] (bifenthrin 0.1 LD (0.00000006 gr), stages E-5 and E-6); 65% in series [3] (bifenthrin 0.3 LD (0.00000018 gr), stages E-13 and E-14); 10% in series [5] (setting [10]). The “Resistant to: (FINAL)” value in series [2] is reported as 1 LD of thiodicarb; in series [3], 1 LD of thiodicarb; in series [4], 1.2 LD of thiodicarb; in series [5], 1 DL of thiodicarb; in series [6], 1 DL of thiodicarb.
